Reference: ChEMBL document CHEMBL6109120, “Discovery of Novel SIK2/3 Inhibitors for the Potential Treatment of MEF2C+ Acute Myeloid Leukemia (AML)” (J Med Chem, 2025)

Key:
[1] = target: T1, Cyclin-G-associated kinase (Homo sapiens, UniProt O14976)
T1 sequence (O14976 whole entry): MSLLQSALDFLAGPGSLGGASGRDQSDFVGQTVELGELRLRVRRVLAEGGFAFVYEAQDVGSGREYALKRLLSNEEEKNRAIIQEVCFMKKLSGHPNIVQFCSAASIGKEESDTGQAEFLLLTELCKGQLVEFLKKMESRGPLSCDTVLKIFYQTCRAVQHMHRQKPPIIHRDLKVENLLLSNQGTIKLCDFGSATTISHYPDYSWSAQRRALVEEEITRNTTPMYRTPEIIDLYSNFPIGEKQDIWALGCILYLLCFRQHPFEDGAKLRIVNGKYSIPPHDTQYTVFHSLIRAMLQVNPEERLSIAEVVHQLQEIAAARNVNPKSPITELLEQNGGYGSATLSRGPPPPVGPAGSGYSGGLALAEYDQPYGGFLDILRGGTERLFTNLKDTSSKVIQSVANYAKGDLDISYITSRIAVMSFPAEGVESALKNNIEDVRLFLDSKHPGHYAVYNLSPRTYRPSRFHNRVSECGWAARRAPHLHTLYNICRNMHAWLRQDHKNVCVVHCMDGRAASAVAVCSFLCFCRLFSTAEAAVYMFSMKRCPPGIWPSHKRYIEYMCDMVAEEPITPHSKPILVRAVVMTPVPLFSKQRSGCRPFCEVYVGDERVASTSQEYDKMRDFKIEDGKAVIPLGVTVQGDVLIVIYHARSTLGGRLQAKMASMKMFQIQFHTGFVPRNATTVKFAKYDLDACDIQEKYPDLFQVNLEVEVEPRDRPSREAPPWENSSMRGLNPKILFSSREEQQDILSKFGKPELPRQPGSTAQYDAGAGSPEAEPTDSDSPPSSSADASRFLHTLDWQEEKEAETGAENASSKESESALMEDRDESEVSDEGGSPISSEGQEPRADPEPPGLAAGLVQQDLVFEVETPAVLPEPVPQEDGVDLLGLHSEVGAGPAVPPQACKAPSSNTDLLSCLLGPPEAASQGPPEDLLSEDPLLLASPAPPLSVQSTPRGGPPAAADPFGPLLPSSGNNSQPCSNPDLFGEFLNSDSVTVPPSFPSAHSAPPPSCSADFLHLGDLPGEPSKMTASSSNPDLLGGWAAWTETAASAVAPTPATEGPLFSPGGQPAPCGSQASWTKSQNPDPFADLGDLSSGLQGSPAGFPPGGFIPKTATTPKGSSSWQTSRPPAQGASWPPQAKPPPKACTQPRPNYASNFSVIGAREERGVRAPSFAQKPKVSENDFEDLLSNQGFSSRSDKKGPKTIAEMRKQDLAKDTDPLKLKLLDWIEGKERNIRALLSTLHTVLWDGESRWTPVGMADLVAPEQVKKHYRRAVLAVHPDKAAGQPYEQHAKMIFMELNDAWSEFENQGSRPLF
Description: Binding affinity to human GAK by KINOMEscan assay

[2] = target: Platelet-derived growth factor receptor alpha (Homo sapiens, UniProt P16234)
Platelet-derived growth factor receptor alpha, sequence (P16234 whole entry): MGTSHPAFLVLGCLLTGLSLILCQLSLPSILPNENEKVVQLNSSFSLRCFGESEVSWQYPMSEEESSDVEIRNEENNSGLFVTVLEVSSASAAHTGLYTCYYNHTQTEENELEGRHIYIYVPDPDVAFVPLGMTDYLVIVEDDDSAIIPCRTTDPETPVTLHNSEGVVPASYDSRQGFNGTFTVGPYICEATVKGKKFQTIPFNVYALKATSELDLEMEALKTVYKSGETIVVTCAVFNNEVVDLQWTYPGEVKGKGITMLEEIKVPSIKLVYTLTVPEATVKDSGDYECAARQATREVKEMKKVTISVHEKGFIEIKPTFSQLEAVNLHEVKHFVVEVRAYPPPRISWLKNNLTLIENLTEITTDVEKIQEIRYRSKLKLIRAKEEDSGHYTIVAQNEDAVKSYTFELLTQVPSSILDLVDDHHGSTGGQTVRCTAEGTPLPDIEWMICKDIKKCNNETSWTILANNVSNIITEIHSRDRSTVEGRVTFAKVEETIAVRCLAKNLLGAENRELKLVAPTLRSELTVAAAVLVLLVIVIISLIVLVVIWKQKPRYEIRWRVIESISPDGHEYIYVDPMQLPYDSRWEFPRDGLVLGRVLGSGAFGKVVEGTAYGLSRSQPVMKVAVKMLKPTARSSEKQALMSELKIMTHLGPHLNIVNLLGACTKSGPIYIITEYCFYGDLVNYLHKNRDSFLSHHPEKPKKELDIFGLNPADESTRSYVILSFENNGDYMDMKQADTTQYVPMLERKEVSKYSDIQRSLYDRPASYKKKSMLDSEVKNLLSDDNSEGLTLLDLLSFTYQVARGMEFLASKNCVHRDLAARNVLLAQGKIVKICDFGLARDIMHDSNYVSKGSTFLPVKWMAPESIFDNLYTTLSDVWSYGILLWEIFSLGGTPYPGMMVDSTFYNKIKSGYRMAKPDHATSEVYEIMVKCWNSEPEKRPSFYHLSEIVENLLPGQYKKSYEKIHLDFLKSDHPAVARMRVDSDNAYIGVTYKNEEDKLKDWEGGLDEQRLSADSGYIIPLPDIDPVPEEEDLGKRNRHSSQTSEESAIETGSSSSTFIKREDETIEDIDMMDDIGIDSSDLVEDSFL
Description: Binding affinity to human PDGFRalpha by KINOMEscan assay

IC50 [1]: 492 nM
IC50 [2]: 31 nM
Compound: COc1nc(-c2cc(-c3cnn(C)c3)cnc2N)cc2c1C(=O)N(CC(F)(F)F)CC2
